Test results from patent publication US20040265915A1, “Method to identify regulators of cellular activation using Bcl10” (priority 2003, published 2004).
One block for each molecule: values may come before it.

Assays:
microtubules = assay: Microtubule integrity (tubulin distribution) in PMA-stimulated D10 T cells; format: cell-based, murine; settings: 2 hr pretreatment with 10 μg/ml nocodazole, then 10 ng/ml PMA 20 min
Method: (§1) To circumvent the problem that many cytoskeletal inhibitors also impair T cell/APC conjugate formation, D10 T cells were activated with phorbol ester (PMA), a stimulator of PKC. Specifically, in these experiments, D10 T cells infected with retroviruses encoding PKCθ-CFP and Bcl10-YFP received no pre-treatment, 2 hr pretreatment with 10 μg/ml nocodazole, or 1 hr pretreatment with 2 μg/ml latrunculin A. Cells then received either no treatment or were incubated for 20 min with 10 ng/ml PMA.

[1] = system: Bcl10-YFP POLKADOTS formation; assay: Bcl10-YFP POLKADOTS formation in PMA-stimulated D10 T cells with cytoskeletal inhibitors; format: cell-based, murine; settings: data not shown
Method: as §1

PKCθ-CFP = target: T1, PKCθ-CFP (Mus musculus, UniProt Q02111); assay: PKCθ-CFP translocation in D10 T cells, fluorescence microscopy; format: cell-based, murine
T1 construct: expressed in transfected cells; host or cells: D10 murine CD4+ T cell clone, infected with pEneo retrovirus
T1 sequence (Q02111 whole entry): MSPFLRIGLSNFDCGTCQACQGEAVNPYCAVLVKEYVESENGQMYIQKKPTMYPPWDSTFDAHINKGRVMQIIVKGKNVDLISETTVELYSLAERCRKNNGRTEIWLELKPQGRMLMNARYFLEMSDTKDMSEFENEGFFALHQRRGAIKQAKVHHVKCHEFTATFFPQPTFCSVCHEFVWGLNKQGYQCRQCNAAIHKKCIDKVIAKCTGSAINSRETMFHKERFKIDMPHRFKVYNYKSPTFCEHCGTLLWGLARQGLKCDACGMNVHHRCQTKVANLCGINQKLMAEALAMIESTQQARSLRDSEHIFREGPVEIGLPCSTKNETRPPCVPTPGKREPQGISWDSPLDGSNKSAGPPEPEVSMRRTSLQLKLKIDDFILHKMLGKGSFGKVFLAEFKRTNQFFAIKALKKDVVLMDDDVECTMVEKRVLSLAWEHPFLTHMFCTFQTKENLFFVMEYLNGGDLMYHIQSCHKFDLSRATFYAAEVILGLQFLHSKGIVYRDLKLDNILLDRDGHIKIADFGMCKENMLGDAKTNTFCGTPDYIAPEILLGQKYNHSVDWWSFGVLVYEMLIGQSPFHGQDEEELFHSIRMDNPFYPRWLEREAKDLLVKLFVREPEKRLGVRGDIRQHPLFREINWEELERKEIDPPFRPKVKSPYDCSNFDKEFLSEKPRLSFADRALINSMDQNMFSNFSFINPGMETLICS
Method: (§2) Murine PKCθ was fused to a C-terminal linker (GRVELGR; SEQ ID NO:7) followed by GFP or CFP (19), modified by mutations that improve folding at 37° C. (20). Two I.M.A.G.E. expressed sequence tag (EST) clones encoding murine Bcl10 were purchased (2123397 and 3026026; ResGen). Clone 3026026 was used for PCR amplification of Bc 10, adding the C-terminal linker GR, which was then fused to the previously described modified YFP gene (17). The PKCθ-CFP and Bcl10-YFP gene fusions were cloned into the retroviral vectors pEneo and pEhyg (21), respectively. Retroviral infection and cell line production were as described (17).
as §1
(§3) CH12 B cells that had been pre-incubated with no antigen or with 250 μg/ml conalbumin protein were then added. Cells were fixed after 30 min and examined by fluorescence microscopy. […]

[2] = system: Bcl10-YFP POLKADOTS formation; assay: Bcl10-YFP POLKADOTS formation in antigen-stimulated D10 T cells, fluorescence microscopy; format: cell-based, murine; settings: bisindo 2 μM, stauro 100 nM; for Bcl10-YFP POLKADOTS formation: D10 T cells expressing Bcl10-YFP, conalbumin-loaded CH12 B cells (100 μg/ml), 30 min pre-treatment, fixed after 20 min, FIG. 4; for Bcl10 POLKADOTS formation: D10 T cells expressing PKCθ-CFP and Bcl10-YFP, CH12 B cells with 250 μg/ml conalbumin, 30 min pretreatment, fixed after 30 min, FIG. 5
Method: (§4) D10-IL2 (henceforth referred to as D10) is an IL-2 dependent subclone of the CD4^+ T cell clone D10 (16), maintained as described (17). Primary T cell blasts were prepared by stimulation of spleen and lymph node cells with 100 μg/ml plate-bound anti-TCRP for 48 hr, with IL-2 added for the final 24 hr of stimulation. CH12H-2^k B cells and CHb H-2^b B cells (18) were maintained as described previously (17).
as §2
Fluorescent and Nomarski images were acquired on an Olympus IX70 inverted microscope (Olympus America, Inc.) or a Zeiss Axiovert 200M inverted microscope (Carl Zeiss, Inc.) using a 100× plan-apochromat oil objective. The microscope was controlled by a TILLvisTRAC imaging system, driven by TILLvisION 4.0 software (TILL Photonics, GmbH). Excitation light was provided by a Polychrome IV monochromator (TILL Photonics, GmbH). Dichroic mirrors and excitation filters appropriate for each fluorophore were purchased from Chroma.
For fixed cell imaging, T cell conjugates were formed, mounted on coverslips, paraformaldehyde fixed, and stained with fluorophore-conjugated antibodies (Molecular Probes, Inc.) as described previously (16). For each fluorescent wavelength, z-stacks of 50 xy-planes separated by 0.3 μm were acquired, and stacks were digitally deconvolved using a constrained-iterative algorithm. TILLvisION software was used to convert z-stacks into xy projection images, by retaining only the maximal pixel value for each xy coordinate across the z-dimension.
The inventors next examined whether formation of Bcl10 POLKADOTS is PKC-dependent (FIG. 4 and FIG. 5). D10 T cells expressing Bcl10-YFP were incubated with CH12 B cells with no antigen, or with conalbumin-loaded CH12 B cells (100 μg/ml conalbumin). […] Cells were fixed after 20 minutes and examined by fluorescence microscopy. For each group, >200 T cells were counted, and percentages with and without POLKADOTS were determined.
as §3

[3] = system: Bcl10-YFP phosphorylation; assay: Western blot of TCR-dependent Bcl10-YFP phosphorylation in D10 T cells; format: cell-based, murine; settings: anti-TCR stimulation, 30 min pre-treatment with 2 μM, data not shown
Method: (§5) T cells were stimulated with 100 μg/ml plate-bound anti-TCRP. Cell lysates were prepared on ice using 1× Laemmli buffer, followed by sonication. For immunoprecipitations, 5×10^6 cells were lysed for 1 hr on ice in 360 μL of a buffer consisting of 0.5% NP40, 0.5% deoxcholate, 20 mM Tris, pH 7.6, 250 mM NaCl, 3 mM EDTA, 3 mM EGTA, 1 mM PMSF, 20 μg/ml aprotinin, 100 μg/ml leupeptin, 1 mM Na3VO4, 10 mM NaF, and 1 mM DTT. Nuclei were removed by centrifugation, and lysates were incubated with polyclonal rabbit anti-Bcl10 antibody (Santa Cruz Biotechnology) for 2-3 hr at 4° C. and then for 1 hr at 4° C. with Protein A sepharose. Lysates and immunoprecipitates were separated by SDS-PAGE and blotted onto nitrocellulose. Proteins were detected by monoclonal antibodies against Bcl10 (Santa Cruz Biotechnology), and PKCθ (BD/Translabs), and polyclonal antibodies against phospho-IκBα anti-phospho-PKCθ/Thr538 (Cell Signaling Technologies), and actin (Santa Cruz Biotechnology). For phosphatase treatment, immunoprecipitates were incubated for 45 min at 30° C. with 400 U of λ-phosphatase (New England Biolabs), according to the instructions of the manufacturer.
The inventors next investigated whether Bcl10 redistribution reflects biochemical modification of Bcl10. […]

[4] = system: NF-κB activation (phosphorylation of IκBα); assay: NF-κB activation assessed by phosphorylation of IκBα in anti-TCR stimulated D10 T cells; format: cell-based, murine; settings: anti-TCR stimulation, 30 min pre-treatment with 2 μM, data not shown
Method: as §5, with “manufacturer. […]” for “manufacturer.”

ERK MAP kinases = assay: Activation of ERK MAP kinases in anti-TCR stimulated D10 T cells; format: cell-based, murine; settings: anti-TCR stimulation, 30 min pre-treatment with 2 μM
Bcl10 = assay: Endogenous Bcl10 enrichment at the T cell/APC interface in OTII T cell blasts, immunofluorescence microscopy; format: cell-based, mice; settings: 45 min with CHb APC loaded with 10 μg/ml OVA 323-339, FIG. 1B
Method: as §4
For fixed cell imaging, T cell conjugates were formed, mounted on coverslips, paraformaldehyde fixed, and stained with fluorophore-conjugated antibodies (Molecular Probes, Inc.) as described previously (16). […]
The inventors sought to establish whether Bcl10, like PKCθ, might be recruited to the c-SMAC in response to specific antigen-loaded APC. […] T cell/APC conjugates were detected by immunofluorescence microscopy, using monoclonal antibodies directed against Bcl10, PKCθ and CD4 (FIG. 1A). […]
In contrast, in T cells stimulated by specific antigen-loaded CHb APC, PKCθ became enriched at the region of contact between the T cell and the APC. […] The mean maximal anti-Bcl10 fluorescence intensity of the enriched regions of the antigen-stimulated T cells was 7-fold higher than the maximal T cell anti-Bcl10 fluorescence of the no antigen controls (FIG. 1B; error bars representing SEM).

Molecule: COC(=O)Nc1nc2ccc(C(=O)c3cccs3)cc2[nH]1 [nocodazole]
microtubules (distribution of tubulin) (microtubules): disrupted

Molecule: CCCCCCCCCCCCCC(=O)O[C@@H]1[C@@H](C)[C@@]2(O)[C@@H](C=C(CO)C[C@]3(O)C(=O)C(C)=C[C@@H]23)[C@@H]2C(C)(C)[C@]12OC(C)=O [PMA]
Bcl10-YFP POLKADOTS on PMA stimulation ([1]; D10 T cells expressing PKCθ-CFP and Bcl10-YFP, 10 ng/ml PMA for 20 min): formation of Bcl10-YFP POLKADOTS | PKCθ-CFP translocation on PMA stimulation (PKCθ-CFP; 10 ng/ml PMA for 20 min, data not shown): translocation of PKCθ-CFP to the cell membrane

PKCθ translocation in presence of PKC inhibitors (PKCθ-CFP; CH12 B cells with 250 μg/ml conalbumin, 30 min pretreatment, bisindo 2 μM, stauro 100 nM, FIG. 5): occurs
Molecule: bisindolylmaleimide
Bcl10-YFP POLKADOTS formation [2]: blocked | Bcl10 POLKADOTS formation [2]: blocked | formation of phosphorylated Bcl10-YFP [3]: completely blocked | activation of NF-κB (phosphorylation of IκBα) [4]: blocked | activation of the ERK MAP kinases (ERK MAP kinases): partially inhibited

Molecule: C/C1=C/C(=O)O[C@@H]2C[C@@H](CC[C@H](C)/C=C\C=C\CC1)O[C@@](O)([C@@H]1CSC(=O)N1)C2 [latrunculin A]
levels of Bcl10-YFP POLKADOTS after cytoskeletal inhibitor pretreatment ([1]; 1 hr pretreatment with 2 μg/ml latrunculin A, then 10 ng/ml PMA 20 min): did not appear to have reduced levels

Molecule: CN[C@@H]1C[C@H]2O[C@@](C)([C@@H]1OC)n1c3ccccc3c3c4c(c5c6ccccc6n2c5c31)C(=O)NC4 [stauro, staurosporine]
Bcl10-YFP POLKADOTS formation [2]: blocked | Bcl10 POLKADOTS formation [2]: blocked

Molecule: ovalbumin: ovalbumin peptide OVA 323-339 bound to IA^b, antigen for OTII T cells (KISQAVHAAHAEINEAG; UniProt P01012 323-339, looked up, fragment)
mean maximal anti-Bcl10 fluorescence intensity of enriched regions relative to no antigen controls (Bcl10): 7 fold
